US20080009415A1, “Fungicidal Mixtures” (BASF Aktiengesellschaft, priority 2004, published 2008)

Test system: Alternaria solani
Assay: Activity against early blight of tomato caused by Alternaria solani
Format: in vivo
Settings: single active compound, leaves sprayed to runoff, infected next day, assessed after 5 days, efficacy in % of untreated control (Abbot)
Protocol: The active compounds were prepared separately or jointly as a stock solution with 25 mg of active compound which was made up to 10 ml using a mixture of acetone and/or DMSO and the emulsifier Uniperol®) EL (wetting agent having emulsifying and dispersing action based on ethoxylated alkylphenols) in a volume ratio of solvent/emulsifier of 99 to 1. The mixture was then made up with water to 100 ml. This stock solution was diluted with the solvent/emulsifier/water mixture described to the concentration of active compounds stated below.
The visually determined percentages of infected leaf areas were converted into efficacies in % of the untreated control:
The efficacy (E) is calculated as follows using Abbot's formula: E=(1−α/β)·100 α corresponds to the fungicidal infection of the treated plants in % and β corresponds to the fungicidal infection of the untreated (control) plants in % An efficacy of 0 means that the infection level of the treated plants corresponds to that of the untreated control plants; an efficacy of 100 means that the treated plants were not infected.
The expected efficacies of mixtures of active compounds were determined using Colby's formula (Colby, S. R. “Calculating synergistic and antagonistic responses of herbicide combinations”, Weeds, 15, 20-22, 1967) and compared with the observed efficacies.
Colby's formula: E=x+y−x·y/100
E expected efficacy, expressed in % of the untreated control, when using the mixture of the active compounds A and B at the concentrations a and b x efficacy, expressed in % of the untreated control, when using the active compound A at the concentration a y efficacy, expressed in % of the untreated control, when using the active compound B at the concentration b Use Example—Activity Against Early Blight of Tomato Caused by Alternaria solani Leaves of potted plants of the cultivar “Goldene Königin” were sprayed to runoff point with an aqueous suspension having the concentration of active compound stated below. […]

## CO/C=C(/C(=O)OC)c1ccccc1CO/N=C(C)/C=C/c1ccc(Cl)cc1 [enestroburin (I), methyl 2-{2-[3-(4-chlorophenyl)-1-methylallylideneaminooxymethyl]phenyl}-3-methoxyacrylate]
Conc. 4 ppm
  Observed efficacy (%): 22%

## COc1cc(C)c(C(=O)c2c(OC)ccc(Br)c2C)c(OC)c1OC [metrafenone (II-41), 3′-bromo-2,3,4,6′-tetramethoxy-2′,6-dimethylbenzophenone]
Conc. 1 ppm
  Observed efficacy (%): 0%
Conc. 4 ppm
  Observed efficacy (%): 0%
